Residues, ends and D or L forms follow the SMILES beside them.
Each molecule was assayed against Angiotensin-converting enzyme (ACE) (UniProt P12821) (assay: not given). Conditions: not given.
Chain of Angiotensin-converting enzyme (ACE) (P12821 30-1306): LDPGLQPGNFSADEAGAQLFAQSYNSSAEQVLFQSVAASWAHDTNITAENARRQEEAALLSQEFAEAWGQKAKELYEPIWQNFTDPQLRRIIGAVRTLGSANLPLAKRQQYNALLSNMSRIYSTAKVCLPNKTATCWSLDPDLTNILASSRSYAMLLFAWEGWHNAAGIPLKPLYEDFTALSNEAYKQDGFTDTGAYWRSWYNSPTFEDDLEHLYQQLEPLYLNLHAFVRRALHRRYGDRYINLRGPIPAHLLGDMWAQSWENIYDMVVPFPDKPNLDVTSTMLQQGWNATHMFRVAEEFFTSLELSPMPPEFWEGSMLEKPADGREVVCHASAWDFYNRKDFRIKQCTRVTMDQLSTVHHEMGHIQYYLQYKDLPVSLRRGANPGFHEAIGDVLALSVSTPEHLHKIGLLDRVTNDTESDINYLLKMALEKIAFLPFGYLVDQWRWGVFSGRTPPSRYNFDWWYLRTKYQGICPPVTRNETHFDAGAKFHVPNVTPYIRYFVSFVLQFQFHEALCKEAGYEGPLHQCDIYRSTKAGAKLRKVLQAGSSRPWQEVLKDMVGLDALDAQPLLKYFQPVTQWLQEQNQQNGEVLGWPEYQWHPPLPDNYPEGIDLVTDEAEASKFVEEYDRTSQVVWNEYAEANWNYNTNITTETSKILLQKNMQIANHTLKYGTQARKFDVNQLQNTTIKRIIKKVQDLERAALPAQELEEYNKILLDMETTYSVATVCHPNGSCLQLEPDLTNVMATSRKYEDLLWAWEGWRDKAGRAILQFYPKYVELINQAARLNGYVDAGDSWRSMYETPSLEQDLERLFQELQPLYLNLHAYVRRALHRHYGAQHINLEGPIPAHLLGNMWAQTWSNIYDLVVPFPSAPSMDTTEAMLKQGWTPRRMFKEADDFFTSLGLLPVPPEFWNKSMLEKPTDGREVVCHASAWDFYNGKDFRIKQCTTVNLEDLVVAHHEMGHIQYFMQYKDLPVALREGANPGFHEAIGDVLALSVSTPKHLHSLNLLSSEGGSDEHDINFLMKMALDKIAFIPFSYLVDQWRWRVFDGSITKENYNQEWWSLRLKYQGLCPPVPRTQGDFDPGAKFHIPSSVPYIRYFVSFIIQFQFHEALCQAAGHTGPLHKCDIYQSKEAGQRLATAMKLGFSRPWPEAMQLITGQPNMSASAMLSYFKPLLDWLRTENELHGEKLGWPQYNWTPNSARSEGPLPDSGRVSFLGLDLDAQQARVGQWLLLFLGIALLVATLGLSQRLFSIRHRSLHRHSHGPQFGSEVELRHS

Row | Molecule | IC50 of inhibition of ACE activity (hydrolysis of HHL to hippuric acid, HPLC at 228 nm, 37 °C)
1 | tetrapeptide RRYQ | 115 µM
2 | tetrapeptide WFRV | 31.8 µM
3 | WWDW [tetrapeptide WWDW] | 36.8 µM
4 | YYWK [tetrapeptide YYWK] | 20 µM
5 | WWNW [tetrapeptide WWNW] | 26.4 µM
6 | WFSW [tetrapeptide WFSW] | 148 µM
7 | RWWD [tetrapeptide RWWD] | 129 µM
8 | WRFF [tetrapeptide WRFF] | 141 µM
9 | WWTY [tetrapeptide WWTY] | 28.5 µM
10 | WRQF [tetrapeptide WRQF] | 29.6 µM

Each molecule was assayed against ACE (Homo sapiens, UniProt P12821) (assay: Assay of ACE inhibitory activity (HHL hydrolysis, HPLC of hippuric acid)). Conditions: in vitro; substrate HHL, borate buffer, 37 °C, 5 min coincubation with HHL, 30 min reaction, HCl stop; 7 concentrations; HPLC C18 at 228 nm; GraphPad Prism 7.0.
Format: biochemical
Description: IC50 refers to the semi-inhibitory concentration; here, the principle of in vitro IC50 determination of the potential ACE inhibitory peptide is that ACE can hydrolyse HHL into […] and dipeptide. HHL and tetrapeptide are competitive, and when ACE binds to the tetrapeptide, it will reduce the production of the product […]; the IC50 activity of the tetrapeptide is when it is reduced by half of the original concentration. The water bath temperature was controlled at 37 °C, and the initial mass concentration of each tetrapeptide was […]. The tetrapeptide was diluted with borate buffer solution into 7 concentration gradients, and coincubated with HHL buffer for 5 min. Then, the ACE solution was added to initiate the reaction, and the reaction was terminated by the addition of HCl after 30 min of system reaction. Afterwards, the reaction was analysed on a C18 column, with HPLC detection at 228 nm and an injection volume of 10 μL. The mobile phases were water and acetonitrile at 75% and 25%, respectively, with a flow rate of 1 mL/min, and isocratic elution for 7 min (acetonitrile and water containing 0.1% trifluoroacetic acid). ACE inhibition was calculated as ACE inhibition = ((b − c) − (a − c))/(b − c) × 100% (a: peak area of hippuric acid in the experimental group; b: peak area of hippuric acid in the blank group; c: peak area of hippuric acid in the control group), and the inhibition rate was converted into IC50 values by the software graphpad prism 7.0.

Chain of ACE (P12821 30-1306, species assumed): as the sequence (P12821 30-1306) above

Row | Molecule | IC50
11 | NCC(=O)NCC(=O)N[C@@H](CO)C(=O)NCC(=O)O [GGSG] (H-GGSG-OH) | > 5000 µM
12 | N=C(N)NCCC[C@H](NC(=O)[C@@H](N)CCCNC(=N)N)C(=O)N[C@@H](Cc1ccc(O)cc1)C(=O)N[C@@H](CCC(N)=O)C(=O)O [RRYQ] (H-RRYQ-OH) | 115 ± 6.15 µM
13 | N=C(N)NCCC[C@H](N)C(=O)N[C@@H](Cc1c[nH]c2ccccc12)C(=O)N[C@@H](Cc1c[nH]c2ccccc12)C(=O)N[C@@H](CC(=O)O)C(=O)O [RWWD] (H-RWWD-OH) | 129 ± 8.32 µM
14 | N[C@@H](CO)C(=O)NCC(=O)NCC(=O)NCC(=O)O [SGGG] (H-SGGG-OH) | > 5000 µM
15 | CC(C)[C@H](NC(=O)[C@H](CCCNC(=N)N)NC(=O)[C@H](Cc1ccccc1)NC(=O)[C@@H](N)Cc1c[nH]c2ccccc12)C(=O)O [WFRV] (H-WFRV-OH) | 31.8 ± 0.83 µM
16 | N[C@@H](Cc1c[nH]c2ccccc12)C(=O)N[C@@H](Cc1ccccc1)C(=O)N[C@@H](CO)C(=O)N[C@@H](Cc1c[nH]c2ccccc12)C(=O)O [WFSW] (H-WFSW-OH) | 148 ± 14.3 µM
17 | N=C(N)NCCC[C@H](NC(=O)[C@@H](N)Cc1c[nH]c2ccccc12)C(=O)N[C@@H](Cc1ccccc1)C(=O)N[C@@H](Cc1ccccc1)C(=O)O [WRFF] (H-WRFF-OH) | 141 ± 3.9 µM
18 | N=C(N)NCCC[C@H](NC(=O)[C@@H](N)Cc1c[nH]c2ccccc12)C(=O)N[C@@H](CCC(N)=O)C(=O)N[C@@H](Cc1ccccc1)C(=O)O [WRQF] (H-WRQF-OH) | 29.6 ± 6.75 µM
19 | N[C@@H](Cc1c[nH]c2ccccc12)C(=O)N[C@@H](Cc1c[nH]c2ccccc12)C(=O)N[C@@H](CC(=O)O)C(=O)N[C@@H](Cc1c[nH]c2ccccc12)C(=O)O [WWDW] (H-WWDW-OH) | 36.8 ± 1.32 µM
20 | NC(=O)C[C@H](NC(=O)[C@H](Cc1c[nH]c2ccccc12)NC(=O)[C@@H](N)Cc1c[nH]c2ccccc12)C(=O)N[C@@H](Cc1c[nH]c2ccccc12)C(=O)O [WWNW] (H-WWNW-OH) | 26.4 ± 3.81 µM
21 | C[C@@H](O)[C@H](NC(=O)[C@H](Cc1c[nH]c2ccccc12)NC(=O)[C@@H](N)Cc1c[nH]c2ccccc12)C(=O)N[C@@H](Cc1ccc(O)cc1)C(=O)O [WWTY] (H-WWTY-OH) | 28.5 ± 0.99 µM
22 | NCCCC[C@H](NC(=O)[C@H](Cc1c[nH]c2ccccc12)NC(=O)[C@H](Cc1ccc(O)cc1)NC(=O)[C@@H](N)Cc1ccc(O)cc1)C(=O)O [YYWK] (H-YYWK-OH) | 20 ± 8.19 µM
